Literature values as cited in patent US20040157796A1 (priority 2002, published 2004).

Key:
[1] = molecular target: COX-1 (Homo sapiens, UniProt P23219); conditions: background statement
[2] = background statement

Sequence of COX-1 (P23219 24-599): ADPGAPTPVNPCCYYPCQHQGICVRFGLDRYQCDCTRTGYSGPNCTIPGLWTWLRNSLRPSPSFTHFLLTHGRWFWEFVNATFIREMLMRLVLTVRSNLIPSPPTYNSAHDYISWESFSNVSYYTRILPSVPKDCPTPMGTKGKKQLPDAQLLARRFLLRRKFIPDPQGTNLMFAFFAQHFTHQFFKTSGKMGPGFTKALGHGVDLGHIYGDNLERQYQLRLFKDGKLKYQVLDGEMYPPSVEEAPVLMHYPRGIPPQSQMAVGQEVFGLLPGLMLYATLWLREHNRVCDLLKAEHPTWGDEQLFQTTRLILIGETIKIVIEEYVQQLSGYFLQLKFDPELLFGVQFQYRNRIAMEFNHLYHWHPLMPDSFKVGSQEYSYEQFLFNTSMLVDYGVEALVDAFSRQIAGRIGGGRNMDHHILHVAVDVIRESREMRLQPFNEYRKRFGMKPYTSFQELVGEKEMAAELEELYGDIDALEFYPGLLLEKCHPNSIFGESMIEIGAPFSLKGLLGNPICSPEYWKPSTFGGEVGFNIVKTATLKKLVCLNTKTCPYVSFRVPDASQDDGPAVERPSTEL

Compound | in vitro inhibitory activity against COX-1 [1] | solubility in water [2]
CCC(=O)NS(=O)(=O)c1ccc(-c2c(-c3ccccc3)noc2C)cc1 [Parecoxib, N-[[4-(5-methyl-3-phenylisoxazol-4-yl)phenyl]sulfonyl]propanamide] | weak in vitro inhibitory activity | much more soluble
Cc1onc(-c2ccccc2)c1-c1ccc(S(N)(=O)=O)cc1 [valdecoxib] | weak inhibitor | extremely low solubility
